31 compounds from patent US9169260B2 (MERCK SHARP & DOHME CORP., priority 2011, dated 2015) can be followed below.

Where only a bound is given, the exact number is not on record here.

One experiment deals with GST tagged IRAK-4 (Homo sapiens (Human), UniProt Q9NWZ3). The experiment is described as follows: IRAK-4 Kinase Assay (IMAP fluorescence polarization). In kind it is biochemical.
Sequence of GST tagged IRAK-4 (Q9NWZ3 whole entry): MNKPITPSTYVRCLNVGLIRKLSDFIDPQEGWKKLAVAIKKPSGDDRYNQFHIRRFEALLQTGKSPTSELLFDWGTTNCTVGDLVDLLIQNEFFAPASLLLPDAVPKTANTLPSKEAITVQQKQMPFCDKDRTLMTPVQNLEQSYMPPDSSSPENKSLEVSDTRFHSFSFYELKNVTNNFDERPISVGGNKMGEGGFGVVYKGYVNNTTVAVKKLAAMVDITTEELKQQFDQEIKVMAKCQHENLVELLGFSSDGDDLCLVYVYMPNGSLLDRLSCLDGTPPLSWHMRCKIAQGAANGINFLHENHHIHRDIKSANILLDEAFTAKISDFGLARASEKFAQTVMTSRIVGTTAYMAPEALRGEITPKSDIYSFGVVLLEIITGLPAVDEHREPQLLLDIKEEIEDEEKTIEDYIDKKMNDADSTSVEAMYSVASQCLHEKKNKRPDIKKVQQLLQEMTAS
Settings: not given
The procedure, abridged:
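Activity was read by IMAP fluorescence polarization, where phosphopeptide binding to M(III) nanoparticles raises FP. The 30-minute, 25° C reaction used 100 μM ATP, 100 nM RP7030 substrate and 0.5 nM GST-IRAK-4 in pH 7.2 Tris buffer with MgCl2, DTT and Tween 20.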
(Polarisation of emitted light reports the rotation of a fluorescent probe.)
As to “N-(3-(4-(aminomethyl)cyclohexyl)-1-(p-tolyl)-1H-pyrazol-5-yl)pyrazolo[1,5-a]pyrimidine-3-carboxamide [Example 184]”, the IC50 was < 0.1 µM.

The same experiment, now with this note: 100 μM ATP, 30 minutes at 25° C.
Turning to `Cc1ccc(-n2nc(C3CCN(S(=O)(=O)Cc4ccccn4)CC3)cc2NC(=O)c2cnn3cccnc23)cc1` [Example 397, N-[1-(4-methylphenyl)-3-{1-[(pyridin-2-ylmethyl)sulfonyl]piperidin-4-yl}-1H-pyrazol-5-yl]pyrazolo[1,5-a]pyrimidine-3-carboxamide], the IC50 was < 0.1 µM. Take `O=C(Nc1cc(C2CN(C3CCC3)C2)nn1-c1ccc(C2CC2)cc1F)c1cnn2cccnc12` [Example 89, N-(3-(1-cyclobutylazetidin-3-yl)-1-(4-cyclopropyl-2-fluorophenyl)-1H-pyrazol-5-yl)pyrazolo[1,5-a]pyrimidine-3-carboxamide]: the concentration for half-maximal inhibition (IC50) is < 0.1 µM.

As for `Cc1ccc(-n2nc(C3CCN(C4CC[C@@H](C)C4)CC3)cc2NC(=O)c2cnn3cccnc23)nc1` (stereo partly drawn) [Example 273, N-[3-{1-[(3R)-3-methylcyclopentyl]piperidin-4-yl}-1-(5-methylpyridin-2-yl)-1H-pyrazol-5-yl]pyrazolo[1,5-a]pyrimidine-3-carboxamide], the concentration for half-maximal inhibition (IC50) is < 0.1 µM. The same measure, in the same setting: then `Cc1ccc(-n2nc(-c3ccnc(N)c3)cc2NC(=O)c2cnn3cccnc23)cc1` [Example 355, N-[3-(2-aminopyridin-4-yl)-1-(4-methylphenyl)-1H-pyrazol-5-yl]pyrazolo[1,5-a]pyrimidine-3-carboxamide], with < 0.1 µM. On the same count and under the same terms, then `O=C(Nc1cc(C2CCN(C3CCC3)CC2)nn1-c1ccc(Cl)cc1F)c1cnn2cccnc12` [Example 51, N-(1-(4-chloro-2-fluorophenyl)-3-(1-cyclobutylpiperidin-4-yl)-1H-pyrazol-5-yl)pyrazolo[1,5-a]pyrimidine-3-carboxamide], with < 0.1 µM; and `Cc1ccc(-n2nc(-c3ccc(S(=O)(=O)N4CCOCC4)cc3)cc2NC(=O)c2cnn3cccnc23)nc1` [Example 177, N-(1-(5-methylpyridin-2-yl)-3-(4-(morpholinosulfonyl)phenyl)-1H-pyrazol-5-yl)pyrazolo[1,5-a]pyrimidine-3-carboxamide], with < 0.1 µM.

With `Cc1ccc(-n2nc(C3CCN(C4CC(C(C)(C)C)C4)CC3)cc2NC(=O)c2cnn3cccnc23)cc1` (stereo not shown) [Example 256, N-{3-[1-(3-tert-butylcyclobutyl)piperidin-4-yl]-1-(4-methylphenyl)-1H-pyrazol-5-yl}pyrazolo[1,5-a]pyrimidine-3-carboxamide], the half-maximal inhibitory concentration (IC50) is < 0.1 µM.

With `CS(=O)(=O)N1CCC(c2cc(NC(=O)c3cnn4cccnc34)n(-c3ccc(C=O)cn3)n2)CC1` [Example 165, N-(1-(5-formylpyridine-2-yl)-3-(1-(methylsulfonyl)piperidin-4-yl)-1H-pyrazol-5-yl)pyrazolo[1,5-a]pyrimidine-3-carboxamide], the half-inhibitory concentration (IC50) is < 0.1 µM. As for `Cc1ccc(-n2nc(C3CCN(C(C)C)CC3)cc2NC(=O)c2cnn3cc(Br)cnc23)cc1` [Example 108, 6-bromo-N-(3-(1-isopropylpiperidin-4-yl)-1-(p-tolyl)-1H-pyrazol-5-yl)pyrazolo[1,5-a]pyrimidine-3-carboxamide], the IC50 was < 0.1 µM. On the same count and under the same terms, then `Cc1ccc(-n2nc(C3CCN(CC(C)C)CC3)cc2NC(=O)c2cnn3cccnc23)cc1` [Example 219, N-{1-(4-methylphenyl)-3-[1-(2-methylpropyl)piperidin-4-yl]-1H-pyrazol-5-yl}pyrazolo[1,5-a]pyrimidine-3-carboxamide], with < 0.1 µM; and `CNS(=O)(=O)c1ccc(-c2cc(NC(=O)c3cnn4cc(Br)cnc34)n(-c3ccc(C)cn3)n2)cc1` [Example 194, 6-bromo-N-(1-(5-methylpyridin-2-yl)-3-(4-(N-methylsulfamoyl)phenyl)-1H-pyrazol-5-yl)pyrazolo[1,5-a]pyrimidine-3-carboxamide], with < 0.1 µM.

The same experiment, now with this note: 100 μM ATP, 30 minutes at 25° C.; μM.
For `CS(=O)(=O)N1CCC(c2cc(NC(=O)c3cnn4cccnc34)n(-c3ccc(Cl)cc3F)n2)CC1` [Example 29, N-(1-(4-chloro-2-fluorophenyl)-3-(1-(methylsulfonyl)piperidin-4-yl)-1H-pyrazol-5-yl)pyrazolo[1,5-a]pyrimidine-3-carboxamide], the IC50 is < 1 µM. Regarding `Cc1ccc(-n2nc(C3CN(Cc4nccs4)C3)cc2NC(=O)c2cnn3cccnc23)cc1` [Example 307, N-{1-(4-methylphenyl)-3-[1-(1,3-thiazol-2-ylmethyl)azetidin-3-yl]-1H-pyrazol-5-yl}pyrazolo[1,5-a]pyrimidine-3-carboxamide], the IC50 was < 1 µM. The same measure, in the same setting: then `Cc1ccc(-n2nc(C3CCN(C(C)c4ncccc4F)CC3)cc2NC(=O)c2cnn3cccnc23)cc1` (stereo not shown) [Example 212, N-(3-(1-(1-(3-fluoropyridin-2-yl)ethyl)piperidin-4-yl)-1-(p-tolyl)-1H-pyrazol-5-yl)pyrazolo[1,5-a]pyrimidine-3-carboxamide], with < 1 µM; and `Cc1ccc(-n2nc(C3CCOCC3)cc2NC(=O)c2cnn3cccnc23)cc1` [Example 46, N-(3-(tetrahydro-2H-pyran-4-yl)-1-(p-tolyl)-1H-pyrazol-5-yl)pyrazolo[1,5-a]pyrimidine-3-carboxamide], with < 1 µM.

Turning to `Cc1ccc(-n2nc(C3CCN(C4CN(C(=O)OC(C)C)C4)CC3)cc2NC(=O)c2cnn3cccnc23)cc1` [Example 240, 1-methylethyl 3-(4-{1-(4-methylphenyl)-5-[(pyrazolo[1,5-a]pyrimidin-3-ylcarbonyl)amino]-1H-pyrazol-3-yl}piperidin-1-yl)azetidine-1-carboxylate], the IC50 is < 1 µM. The same measure, in the same setting: to `Cc1ccc(-n2nc(C3CCC(O)CC3)cc2NC(=O)c2cnn3cccnc23)cc1` (stereo not shown) [Example 6, N-(3-(4-hydroxycyclohexyl)-1-(p-tolyl)-1H-pyrazol-5-yl)pyrazolo[1,5-a]pyrimidine-3-carboxamide] belongs < 1 µM; to `Cc1ccc(-n2nc(C3CCN(C(C)CC(F)(F)F)CC3)cc2NC(=O)c2cnn3cccnc23)cc1` (stereo not shown) [Example 260, N-{1-(4-methylphenyl)-3-[1-(3,3,3-trifluoro-1-methylpropyl)piperidin-4-yl]-1H-pyrazol-5-yl}pyrazolo[1,5-a]pyrimidine-3-carboxamide], < 1 µM. On the same count and under the same terms, then `COc1ccc(S(=O)(=O)N2CCC(c3cc(NC(=O)c4cnn5cccnc45)n(-c4ccc(C)cc4)n3)CC2)c(OC)c1` [Example 372, N-[3-{1-[(2,4-dimethoxyphenyl)sulfonyl]piperidin-4-yl}-1-(4-methylphenyl)-1H-pyrazol-5-yl]pyrazolo[1,5-a]pyrimidine-3-carboxamide], with < 1 µM; and `Cc1ccc(-n2nc(C3CCNC3)cc2NC(=O)c2cnn3cccnc23)cc1` (stereo not shown) [Example 80, N-(3-(pyrrolidin-3-yl)-1-(p-tolyl)-1H-pyrazol-5-yl)pyrazolo[1,5-a]pyrimidine-3-carboxamide], with < 1 µM.

`COc1ccc(-n2nc(C3CCNCC3)cc2NC(=O)c2cnn3cccnc23)cc1` [Example 8, N-(1-(4-methoxyphenyl)-3-(piperidin-4-yl)-1H-pyrazol-5-yl)pyrazolo[1,5-a]pyrimidine-3-carboxamide]: the IC50 is < 1 µM. Still for that read-out and setting: then `CNS(=O)(=O)c1ccc(-c2cc(NC(=O)c3cnn4cc(C5CC5)cnc34)n(-c3ccc(C)cn3)n2)cc1` [Example 195, 6-cyclopropyl-N-(1-(5-methylpyridin-2-yl)-3-(4-(N-methylsulfamoyl)phenyl)-1H-pyrazol-5-yl)pyrazolo[1,5-a]pyrimidine-3-carboxamide], with < 1 µM; and `Cc1ccc(-n2nc(-c3ccnn3C)cc2NC(=O)c2cnn3cccnc23)cc1` [Example 331, N-[2′-methyl-1-(4-methylphenyl)-1H,2′H-3,3′-bipyrazol-5-yl]pyrazolo[1,5-a]pyrimidine-3-carboxamide], with < 1 µM; and `Cc1ccc(-n2nc(C3CCN(S(=O)(=O)c4ccccc4C#N)CC3)cc2NC(=O)c2cnn3cccnc23)cc1` [Example 362, N-[3-{1-[(2-cyanophenyl)sulfonyl]piperidin-4-yl}-1-(4-methylphenyl)-1H-pyrazol-5-yl]pyrazolo[1,5-a]pyrimidine-3-carboxamide], with < 1 µM.

In the case of `COc1ccc(-c2cc(NC(=O)c3cnn4cccnc34)n(-c3cccc(F)c3)n2)cc1` [Example 132, N-(1-(3-fluorophenyl)-3-(4-methoxyphenyl)-1H-pyrazol-5-yl)pyrazolo[1,5-a]pyrimidine-3-carboxamide], the IC50 is < 1 µM. Same read-out and setting: to `Cc1ccc(-n2nc(C3(C)CC3)cc2NC(=O)c2cnn3cccnc23)nc1` [Example 181, N-(3-(1-methylcyclopropyl)-1-(5-methylpyridin-2-yl)-1H-pyrazol-5-yl)pyrazolo[1,5-a]pyrimidine-3-carboxamide] belongs > 1 µM; to `Cc1ccc(-n2nc(C3CCN(C(=O)C4CN(C)CCO4)CC3)cc2NC(=O)c2cnn3cc(Br)cnc23)cc1` (stereo not shown) [Example 117, 6-bromo-N-(3-(1-(4-methylmorpholine-2-carbonyl)piperidin-4-yl)-1-(p-tolyl)-1H-pyrazol-5-yl)pyrazolo[1,5-a]pyrimidine-3-carboxamide], < 1 µM; to `Cc1ccc(-n2nc(C3CN(Cc4cncnc4)C3)cc2NC(=O)c2cnn3cccnc23)cc1` [Example 310, N-{1-(4-methylphenyl)-3-[1-(pyrimidin-5-ylmethyl)azetidin-3-yl]-1H-pyrazol-5-yl}pyrazolo[1,5-a]pyrimidine-3-carboxamide], < 1 µM. Same read-out and setting: to `Cc1ccc(-n2nc(C3CN(Cc4cc(C)on4)C3)cc2NC(=O)c2cnn3cccnc23)cc1` [Example 311, N-[3-{1-[(5-methylisoxazol-3-yl)methyl]azetidin-3-yl]-1-(4-methylphenyl)-1H-pyrazol-5-yl}pyrazolo[1,5-a]pyrimidine-3-carboxamide] belongs < 1 µM; to `Cc1ccc(-n2nc(C3CN(S(C)(=O)=O)C3)cc2NC(=O)c2cnn3cccnc23)cc1` [Example 83, N-(3-(1-(methylsulfonyl)azetidin-3-yl)-1-(p-tolyl)-1H-pyrazol-5-yl)pyrazolo[1,5-a]pyrimidine-3-carboxamide], < 1 µM.

What is called IC50 is the concentration that inhibits the measured activity by half. A low value points to inhibition by little substance.
